Measurements as given in paper PMC12811252 (The EMBO Journal, 2025).
Like-named read-outs stand apart in the source and are kept apart here.

Assays:
[1] = biological target: OT-I TCR; test: SPR steady-state binding of soluble OT-I TCR to immobilised pMHC (H-2Kb) at 37 °C: apparent and active KD; set-up: species or system mouse
[2] = biological target: OT-I TCR; conditions: file OT1 Discrimination Published Original KD; repeated per study block; ref Alam 99, Rosette; cited from earlier work
Description: Supplement 44318_2025_644_MOESM7_ESM.zip/OT1 Discrimination Published Original KD.csv, table

[3] = system: naive OT-I splenocytes; conditions: relative to OVA (N4) = 1; ref Huang 2010; cited from earlier work
[4] = system: naive CD8+ T cells from OT-I transgenic mice; conditions: 2D affinity AcKa; ref Huang 2010; cited from earlier work
Description: This striking observation spur ...

[5] = system: pre-selection OT-I double-positive thymocytes; set-up: method as in Daniels 2006; conditions: relative to OVA (N4) = 1; ref Daniels 2006; cited from earlier work
[6] = biological target: OT-I TCR; conditions: 25 °C; ref Alam 95; read-out: Original KD, Alam 95 25ºC; cited from earlier work
Description: Supplement 44318_2025_644_MOESM5_ESM.zip/KDs - Original vs Revised column.xlsx, sheet "KDs - Original vs Revised colum" | column: Original KD from indicated studies in columns

[7] = biological target: OT-I TCR; conditions: ref Alam 99, cited from earlier work
[8] = system: OT-I T cells from transgenic mice; set-up: method as in Hogquist 1995; conditions: relative to OVA (N4) = 1; ref Hogquist 1995; cited from earlier work
[9] = biological target: VSV pMHC: […] on H-2K^b with human beta-2 microglobulin (mouse | human | not stated); test: SPR
[10] = biological target: OT-I TCR; test: SPR binding of OT-I TCR to inactive (denatured or unfolded) pMHC, Bmax constrained to pMHC immobilisation level; set-up: species or system mouse; conditions: unit not printed in the file (text: µM), read-out: KD for inactive pMHC, single experiment
Target sequence in this assay (as listed by the source): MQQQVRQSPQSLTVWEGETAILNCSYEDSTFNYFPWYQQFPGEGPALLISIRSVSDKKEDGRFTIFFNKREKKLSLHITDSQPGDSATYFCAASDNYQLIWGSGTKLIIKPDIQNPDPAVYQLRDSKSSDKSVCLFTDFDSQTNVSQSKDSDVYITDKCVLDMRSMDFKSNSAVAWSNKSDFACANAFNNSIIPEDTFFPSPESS
Target sequence in this assay (as listed by the source): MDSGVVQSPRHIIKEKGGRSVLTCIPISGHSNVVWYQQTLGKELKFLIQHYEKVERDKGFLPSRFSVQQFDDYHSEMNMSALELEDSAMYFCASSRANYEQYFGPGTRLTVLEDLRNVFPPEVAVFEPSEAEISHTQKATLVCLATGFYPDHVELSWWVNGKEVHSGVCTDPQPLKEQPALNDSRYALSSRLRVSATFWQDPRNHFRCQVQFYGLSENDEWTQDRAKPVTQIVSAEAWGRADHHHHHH

[11] = biological target: OT-I TCR; set-up: method as in Stepanek et al, 2014; conditions: SPR equilibrium binding analysis, 25 °C, mean of two independent replicates; ref Stepanek et al, 2014; cited from earlier work
[12] = system: CD8+ Jurkat cells expressing the OT-I TCR; set-up: method as in Lo 2019; conditions: relative to OVA (N4) = 1; ref Lo 2019; cited from earlier work
[13] = system: naive or anergic mouse OT-I CD8+ T cells; set-up: method as in 2 sources, ref Lo et al, 2023 ||| ref Lo 2023; conditions: relative to OVA (N4) = 1; values with * excluded; ref Lo 2023; cited from earlier work
[14] = system: OT-I T cells; set-up: method as in Zehn 2009; conditions: relative to OVA (N4) = 1; ref Zehn 2009; cited from earlier work
[15] = replicate 1 (1st value of the list in KD_active_calculated.csv), 37 °C, unit not given in the file (Table 1: µM), read-out: KD active, single SPR experiment
[16] = replicate 2 (2nd value of the list), 37 °C, unit inferred, read-out: KD active, single SPR experiment
[17] = replicate 3 (3rd value of the list), 37 °C, unit inferred, read-out: KD active, single SPR experiment
[18] = replicate 4 (4th value of the list), 37 °C, unit inferred, read-out: KD active, single SPR experiment
[19] = replicate 5 (5th value of the list), 37 °C, unit inferred, read-out: KD active, single SPR experiment
[20] = replicate 6 (6th value of the list), 37 °C, unit inferred, read-out: KD active, single SPR experiment
[21] = 25 °C, read-out: Original KD, Alam 99 (25ºC)
[22] = 37 °C, * excluded values, because kinetics showed biphasic behaviour, read-out: Original KD, Alam 99 (37ºC)
[23] = SPR, single repeats, read-out: KDs active

Row | Substance | Kd [1, 15] [µM] | Kd [1, 16] [µM] | Kd [1, 17] [µM] | Kd [1, 18] [µM] | Kd [1, 19] [µM] | Kd [1, 20] [µM] | also measured
1 | ATLVFHNL [Stat3] | 2270 | 4730 | 3740 | – | – | – | –
2 | ISFKFDHL [Cappa1] | 2470 | 6920 | 9740 | 3280 | 2800 | 2530 | –
3 | OT-I TCR (soluble; murine variable domains, human constant domains, artificial interchain disulphide) | – | – | – | – | – | – | Kd [9]: 1580 µM
4 | RGYNYEKL [V-OVA, its pMHC is not correctly folded] | – | – | – | – | – | – | Kd [2]: 19 µM; Potency, Huang 2010 [3]: 417000; 2D Huang 37¼C (AcKa) [4]: 0.0000029; Kd [6]: 29.8 µM; Kd ([10]; replicate 1 (first line of Denatured KD.csv)): 1560 µM; Kd ([10]; replicate 2 (second line of Denatured KD.csv)): 2630 µM; Kd [7, 21]: 18.2 µM; Kd [7, 22]: 12.7 µM
5 | RTYTYEKL [Catnb] | 2040 | 1880 | 1900 | 2040 | 1950 | 2380 | Kd [1, 23]: 2040 µM
6 | SIAAFASL [Null] | 4610 | 3520 | 2350 | – | – | – | –
7 | SIIQFERL [Peptide Q4R7] | 184 | 273 | 317 | – | – | – | Potency, Daniels 2006 [5]: 81; Potency, Lo 2019 [12]: 3.464; Kd [11]: 288 µM; Potency, Lo 2023 [13]: 14.78
8 | VGPRYTNL [Mapk1] | – | 4240 | 1810 | 2010 | – | – | –

The next lines start with results.

Row | Kd [1, 15] [µM] | Kd [1, 16] [µM] | Kd [1, 17] [µM] | Kd [1, 18] [µM] | Kd [1, 19] [µM] | Kd [1, 20] [µM] | Substance | also measured
9 | – | 2800 | 12400 | 3870 | 3520 | 2180 | EIINFEKL [Peptide E1] | Kd [2]: 20.3 µM; Kd ([1]; replicate 7 (7th value of the list), 37 °C, unit inferred, read-out: KD active, single SPR experiment): 2320 µM; Kd ([1]; replicate 8 (8th value of the list), 37 °C, unit inferred, read-out: KD active, single SPR experiment): 3030 µM; Kd ([1]; replicate 9 (9th value of the list), 37 °C, unit inferred, read-out: KD active, single SPR experiment): 7240 µM; Kd ([1]; replicate 10 (10th value of the list), 37 °C, unit inferred, read-out: KD active, single SPR experiment): 2140 µM; Potency, Huang 2010 [3]: 167000; 2D Huang 37¼C (AcKa) [4]: 0.0000054; Potency, Daniels 2006 [5]: 56524; Kd [6]: 22.6 µM; Kd [7, 21]: 20.3 µM; Potency, Hogquist 1995 [8]: 5010000
10 | 3370 | 4000 | 2730 | – | – | – | SIIEFEKL [Peptide E4] | Kd [11]: > 1000 µM
11 | 2710 | 3290 | 2190 | – | – | – | SIIKFEKL [Peptide K4] | –
12 | 7640 | 3760 | 4270 | 5030 | 6430 | 4280 | SIIRFEKL [Peptide R4] | Kd [2]: 40.1 µM; Kd [1, 23]: 4270 µM; Kd ([1]; repeat 3, read-out: Revised KDs (This Study)): 4270 µM; Kd ([1]; repeat 6, read-out: Revised KDs (This Study)): 4270 µM; Potency, Huang 2010 [3]: 167000; 2D Huang 37¼C (AcKa) [4]: 0.0000017; Kd [6]: 57.1 µM; Kd [7, 21]: 40.1 µM; Kd [7, 22]: 26.9 µM
13 | 907 | 791 | 628 | 879 | – | – | SIIVFEKL [Peptide V4] | Potency, Zehn 2009 [14]: 680; Kd [11]: > 1000 µM; Potency, Lo 2023 [13]: 2016
